EC50 and Ki data for 19 molecules are collected here from US11318137B2, “Quinazoline compounds as modulators of Ras signaling” (VANDERBILT UNIVERSITY, priority 2017, dated 2022).

In assay [1] the target is T1, SOS-mediated nucleotide exchange on Ras (Homo sapiens, UniProt Q07889).
T1 sequence (Q07889 1-1333): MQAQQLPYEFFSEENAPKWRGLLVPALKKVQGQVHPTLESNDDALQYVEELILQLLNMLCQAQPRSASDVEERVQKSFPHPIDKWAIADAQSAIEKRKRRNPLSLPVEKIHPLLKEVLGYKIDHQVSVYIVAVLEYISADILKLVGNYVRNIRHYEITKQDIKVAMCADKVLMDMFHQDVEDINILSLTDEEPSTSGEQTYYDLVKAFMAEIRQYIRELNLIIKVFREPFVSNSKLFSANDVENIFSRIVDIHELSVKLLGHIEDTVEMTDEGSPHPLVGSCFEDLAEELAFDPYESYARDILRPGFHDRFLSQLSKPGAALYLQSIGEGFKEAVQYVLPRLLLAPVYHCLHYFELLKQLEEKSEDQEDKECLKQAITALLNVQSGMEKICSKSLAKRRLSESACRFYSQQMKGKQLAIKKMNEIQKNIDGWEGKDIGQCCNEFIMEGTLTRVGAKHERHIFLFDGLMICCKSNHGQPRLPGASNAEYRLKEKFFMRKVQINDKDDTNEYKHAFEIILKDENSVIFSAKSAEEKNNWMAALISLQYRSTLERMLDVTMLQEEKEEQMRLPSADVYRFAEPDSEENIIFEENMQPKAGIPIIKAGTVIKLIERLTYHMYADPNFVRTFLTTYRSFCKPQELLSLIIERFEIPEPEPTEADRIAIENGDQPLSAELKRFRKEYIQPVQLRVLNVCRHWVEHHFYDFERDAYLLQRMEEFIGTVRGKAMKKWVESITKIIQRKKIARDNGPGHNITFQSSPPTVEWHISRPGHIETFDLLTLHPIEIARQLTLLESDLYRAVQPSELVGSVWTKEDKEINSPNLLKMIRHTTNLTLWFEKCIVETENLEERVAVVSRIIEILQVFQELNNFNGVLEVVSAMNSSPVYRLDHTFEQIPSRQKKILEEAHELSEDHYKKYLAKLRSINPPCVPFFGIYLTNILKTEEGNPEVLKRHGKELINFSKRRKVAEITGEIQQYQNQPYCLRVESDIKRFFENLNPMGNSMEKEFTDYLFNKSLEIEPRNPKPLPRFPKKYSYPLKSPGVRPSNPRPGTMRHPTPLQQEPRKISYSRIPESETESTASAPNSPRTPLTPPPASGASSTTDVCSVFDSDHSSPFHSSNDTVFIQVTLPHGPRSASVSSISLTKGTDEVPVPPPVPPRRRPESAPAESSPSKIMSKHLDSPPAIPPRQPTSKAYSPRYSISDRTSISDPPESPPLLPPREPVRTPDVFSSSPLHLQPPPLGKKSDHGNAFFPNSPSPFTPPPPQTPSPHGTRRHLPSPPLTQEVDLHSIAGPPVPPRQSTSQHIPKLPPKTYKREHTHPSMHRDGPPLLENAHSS
Put plainly: SOS-mediated nucleotide exchange on Ras (BODIPY-GDP fluorescence). Format: biochemical. The following applies: Ras loaded with BODIPY-GDP, GTP and SOS added; EC50 from derived exchange rates. The procedure:
A. SOS-Mediated Nucleotide Exchange on Ras
Compounds of the present invention were tested for their ability to modify the rate at which Ras exchanges a labeled nucleotide guanosine diphosphate (GDP) analog for guanosine triphosphate (GTP). Briefly, test compounds, then GTP and the Ras GEF SOS (Son of Sevenless) are added to a buffered solution containing Ras protein loaded with BODIPY-GDP. Changes in fluorescence indicating exchange of the labeled GDP for GTP are monitored over time. Raw fluorescence data was fit to a single exponential decay function and derived rates were plotted as mean values. EC50 values were calculated by plotting mean derived rates as a function of compound concentration and fit using a four-parameter dose-response curve. Full assay details are disclosed in: Burns, M. C.; Sun, Q.; Daniels, R. N.; Camper, D. V.; Kennedy, J. P.; Phan, J.; Olejniczak, E. O.; Lee, T.; Waterson, A. G.; Rossanese, O. W.; Fesik, S. W. “Approach for targeting Ras with small molecules that activate SOS-mediated nucleotide exchange” Proc. Natl. Acad. Sci. 2014; 11(9): 3401-3406. PMCID: PMC3948241.

The target of another assay is T2, Son of Sevenless (SOS) (Homo sapiens, UniProt Q07889).
T2 sequence (Q07889 564-1049 limits assumed): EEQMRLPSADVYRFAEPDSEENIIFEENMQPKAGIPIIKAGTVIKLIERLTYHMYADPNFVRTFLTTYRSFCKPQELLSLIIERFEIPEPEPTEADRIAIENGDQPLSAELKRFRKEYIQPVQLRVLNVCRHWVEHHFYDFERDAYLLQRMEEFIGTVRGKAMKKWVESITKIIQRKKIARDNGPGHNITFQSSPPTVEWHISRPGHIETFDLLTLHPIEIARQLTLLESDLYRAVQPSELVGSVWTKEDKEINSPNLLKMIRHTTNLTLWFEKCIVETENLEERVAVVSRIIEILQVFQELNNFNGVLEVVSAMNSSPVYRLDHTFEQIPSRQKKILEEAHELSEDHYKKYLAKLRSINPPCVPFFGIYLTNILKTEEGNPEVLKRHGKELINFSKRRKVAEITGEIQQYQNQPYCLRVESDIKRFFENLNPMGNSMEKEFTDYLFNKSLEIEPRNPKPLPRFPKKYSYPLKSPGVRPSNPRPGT
Nature of the assay: Binding to SOS, fluorescence polarization anisotropy (FPA) displacement of FITC-conjugated probe. The following applies: binding affinity calculated from IC50 of FITC-probe displacement, read-out: Binding affinities (binding affinity to SOS). The procedure: Compounds of the present invention were tested for their ability to the Ras guanine exchange factor (GEF) Son of Sevenless (SOS). Binding to SOS was measured using a Fluorescence polarization anisotropy (FPA) assay that assesses the ability of a test compound to displace a fluorescent FITC-conjugated compound. Briefly, the labeled probe compound is incubated with SOS in buffer. Changes in anisotropy indicative of displacement of the labeled probe for a test compound are assessed over a dose range of test compound. Data was analyzed by plotting fluorescence anisotropy values as a function of compound concentration. IC50 values were determined using a four-parameter dose-response (variable slope) and binding affinities were calculated from this IC50 value. This assay is performed in a method analogous to the assay disclosed in: Burns, M. C.; Sun, Q.; Daniels, R. N.; Camper, D. V.; Kennedy, J. P.; Phan, J.; Olejniczak, E. O.; Lee, T.; Waterson, A. G.; Rossanese, O. W.; Fesik, S. W. “Approach for targeting Ras with small molecules that activate SOS-mediated nucleotide exchange” Proc. Natl. Acad. Sci. 2014; 11(9): 3401-3406. PMCID: PMC3948241.

Where only a bound is given, the exact number is not on record here.

As usually defined, the EC50 is the concentration at which the effect is half-maximal. Lower therefore signals a more potent agent. In assay [1], `Cc1cc(F)cc(Nc2nc(N[C@H](C)C3CC3)c3cccc(C4=CCNCC4)c3n2)c1` [Example 107, (R)—N^4-(1-cyclopropylethyl)-N^2-(3-fluoro-5-methylphenyl)-8-(1,2,3,6-tetrahydropyridin-4-yl)quinazoline-2,4-diamine] gave an EC50 of 1 to 5 µM. In addition, the Ki on Son of Sevenless (SOS) is 1 to 5 µM.

Turning to `CC[C@@H](Nc1nc(NCC2CCCCC2)nc2c(CCN)cccc12)C1CC1` [Example 127, (R)-8-(2-aminoethyl)-N^2-(cyclohexylmethyl)-N^4-(1-cyclopropylpropyl)quinazoline-2,4-diamine], the EC50 in assay [1] fell in the range of 1 to 5 µM. Moreover, the Ki on Son of Sevenless (SOS) is below 1 µM.

Turning to `Fc1ccc(CNc2nc(NCc3ccco3)c3ccccc3n2)cc1` [Example 14, N^2-(4-fluorobenzyl)-N^4-(furan-2-ylmethyl)quinazoline-2,4-diamine], the EC50 in assay [1] is 1 to 5 µM. Also, at Son of Sevenless (SOS), the Ki was above 5 µM.

With `Cc1cc(F)cc(Nc2nc(N[C@H](C)c3cccs3)c3cccc(CN)c3n2)c1` [Example 95, (R)-8-(aminomethyl)-N^2-(3-fluoro-5-methylphenyl)-N^4-(1-(thiophen-2-yl)ethyl)quinazoline-2,4-diamine], the EC50 in assay [1] was in the range of 5 to 30 µM. Moreover, the Ki at Son of Sevenless (SOS) is above 5 µM.

With `C[C@@H](Nc1nc(Nc2ccc(F)c(Cl)c2)nc2c(CCN)cccc12)C(C)(C)C` [Example 82, (R)-8-(2-aminoethyl)-N^2-(3-chloro-4-fluorophenyl)-N^4-(3,3-dimethylbutan-2-yl)quinazoline-2,4-diamine], in assay [1], the EC50 is 5 to 30 µM. Further, the Ki at Son of Sevenless (SOS) was above 5 µM.

`C[C@@H](Nc1nc(Nc2cc(F)cc(C#N)c2)nc2ccccc12)C1CC1` [Example 23, (R)-3-((4-((1-cyclopropylethyl)amino)quinazolin-2-yl)amino)-5-fluorobenzonitrile] yielded an EC50 in assay [1] of 1 to 5 µM. The Ki on Son of Sevenless (SOS) is above 5 µM.

For `CC[C@@H](Nc1nc(Nc2ccc(F)c(Cl)c2)nc2ccccc12)C1CCC1` [Example 42, (R)—N^2-(3-chloro-4-fluorophenyl)-N^4-(1-cyclobutylpropyl)quinazoline-2,4-diamine], the EC50 in assay [1] was 1 to 5 µM. Moreover, the Ki on Son of Sevenless (SOS) was above 5 µM.

`CC[C@@H](Nc1nc(Nc2ccc(F)c(Cl)c2)nc2ccccc12)C1CC1` [Example 34, (R)—N^2-(3-chloro-4-fluorophenyl)-N^4-(1-cyclopropylpropyl)quinazoline-2,4-diamine] returned an EC50 in assay [1] of 5 to 30 µM. Also, on Son of Sevenless (SOS), the Ki was above 5 µM.

In the case of `C[C@@H](Nc1nc(NCc2cccc(Cl)c2F)nc2c(CN)cccc12)C(C)(C)C` [Example 87, (R)-8-(aminomethyl)-N^2-(3-chloro-2-fluorobenzyl)-N^4-(3,3-dimethylbutan-2-yl)quinazoline-2,4-diamine], the EC50 in assay [1] was 5 to 30 µM. For the same molecule, on Son of Sevenless (SOS), the Ki is above 5 µM.

In assay [1], `C[C@@H](Nc1nc(NCC2CCCCC2)nc2c(CCN)cccc12)c1cccs1` [Example 93, (R)-8-(2-aminoethyl)-N^2-(cyclohexylmethyl)-N^4-(1-(thiophen-2-yl)ethyl)quinazoline-2,4-diamine] yielded an EC50 of 5 to 30 µM. Further, at Son of Sevenless (SOS), the Ki is below 1 µM.

In turn, `NCCc1cccc2c(NC(C3CC3)C3CC3)nc(NCC3CCCCC3)nc12` [Example 74, 8-(2-aminoethyl)-N^2-(cyclohexylmethyl)-N^4-(dicyclopropylmethyl)quinazoline-2,4-diamine] registered an EC50 in assay [1] of 1 to 5 µM. The Ki on Son of Sevenless (SOS) is 1 to 5 µM.

As for `C[C@@H](Nc1nc(Nc2ccc(F)c(Cl)c2)nc2c(NCCO)cccc12)C1CC1` [Example 54, (R)-2-((2-((3-chloro-4-fluorophenyl)amino)-4-((1-cyclopropylethyl)amino)quinazolin-8-yl)amino)ethan-1-ol], in assay [1], the EC50 is above 30 µM. In addition, the Ki on Son of Sevenless (SOS) is above 5 µM.

With `Fc1ccc(Nc2nc(NC(C3CC3)C3CC3)c3ccccc3n2)cc1Cl` [Example 21, N^2-(3-chloro-4-fluorophenyl)-N^4-(dicyclopropylmethyl)quinazoline-2,4-diamine], the EC50 in assay [1] fell in the range of 1 to 5 µM. In addition, the Ki at Son of Sevenless (SOS) was above 5 µM.

`C[C@@H](Nc1nc(Nc2ccc(F)c(Cl)c2)nc2c(CN)cccc12)C(C)(C)C` [Example 130, (R)-8-(aminomethyl)-N^2-(3-chloro-4-fluorophenyl)-N^4-(3,3-dimethylbutan-2-yl)quinazoline-2,4-diamine]: the EC50 in assay [1] is 5 to 30 µM. Also, the Ki at Son of Sevenless (SOS) is above 5 µM.

For the molecule `C[C@@H](Nc1nc(Nc2ccc(F)c(Cl)c2)nc2c(C3=CCN(C)CC3)cccc12)C1CC1` [Example 120, (R)—N^2-(3-chloro-4-fluorophenyl)-N^4-(1-cyclopropylethyl)-8-(1-methyl-1,2,3,6-tetrahydropyridin-4-yl)quinazoline-2,4-diamine], the EC50 in assay [1] was in the range of 5 to 30 µM. Further, the Ki at Son of Sevenless (SOS) was 1 to 5 µM.

`C[C@@H](Nc1nc(NCc2cccc(C(F)(F)F)c2)nc2ccccc12)C1CC1` [Example 28, (R)—N^4-(1-cyclopropylethyl)-N^2-(3-(trifluoromethyl)benzyl)quinazoline-2,4-diamine] returned an EC50 in assay [1] of 5 to 30 µM.

`Oc1cccc(Nc2nc(NCc3cccs3)c3ccccc3n2)c1` [Example 13, 3-((4-((thiophen-2-ylmethyl)amino)quinazolin-2-yl)amino)phenol] had an EC50 in assay [1] of 5 to 30 µM.

The molecule `FC(F)(F)Oc1cccc(Nc2nc(NCc3cccs3)c3ccccc3n2)c1` [Example 7, N^4-(thiophen-2-ylmethyl)-N^2-(3-(trifluoromethoxy)phenyl)quinazoline-2,4-diamine] returned an EC50 in assay [1] of 5 to 30 µM.

The molecule `C[C@@H](Nc1nc(Nc2ccc(F)c(Cl)c2F)nc2ccccc12)C1CC1` [Example 30] returned an EC50 in assay [1] of 5 to 30 µM.
